Data as given in publication PMC8205030, “Methoxy and bromo scans on N-(5-methoxyphenyl) methoxybenzenesulphonamides reveal potent cytotoxic compounds, especially against the human breast adenocarcinoma MCF7 cell line” (Journal of Enzyme Inhibition and Medicinal Chemistry, 2021).
≈ marks a conversion by molar mass, not a printed value. Read-outs that look alike come from different tables or passages of the source.

Legend:
[1] = test system: HeLa (human cervical carcinoma) cells; test: Cell growth assay (XTT), HeLa; type: cell-based; conditions: 72 h drug exposure, read-out: Antiproliferative activity IC50 HeLa
Procedure: (§1) The presence of mycoplasma was routinely checked with MycoAlert kit (Lonza-Cambrex) and only mycoplasma-free cells were used in the experiments. Tumour cell lines were kindly provided by Dr Faustino Mollinedo from Centro de Investigaciones Biológicas Margarita Salas, Madrid, Spain. To determine cell growth, cells in exponential growth phase were seeded (100 µL/well in 96-well plates) with appropriate cell concentration (1.5 × 10^4 cells/mL for MCF7, HeLa and HEK-293 and 3 × 10^4 cells/mL for HT-29) in complete DMEM or RPMI 1640 medium (see above) at 37 °C and 5% CO2 atmosphere. After 24 h incubation, to allow cells to attach to the plates, all compounds were added at 1 µM concentration (10 µL/well in 96-well plates) and the effect on the proliferation was evaluated 72 h post-treatment. Compounds showing antiproliferative effects at tested concentration were selected for IC50 calculation (50% inhibitory concentration compared to the untreated controls) from 10^−5 to 10^−10 M concentration. Nonlinear curves fitting the experimental data were carried out for each compound. […] A freshly prepared mixture solution of XTT labelling reagent with 0.02% (v/v) PMS (N-methyl-dibenzopyrazine methyl sulfate) electron coupling reagent was added to cells (50 µL/well in 96-well plates, the total volume of 160 µL/well) and were incubated during the corresponding time according to each cell line (4 h for MCF7 and HeLa and 6 h for HT-29 and HEK-293) in a humidified atmosphere (37 °C, 5% CO2). The absorbance of the formazan product generated was measured at a test wavelength of 450 nm using a multi-well plate reader (Ultra Evolution, Tecan, Männedorf, Suiza). Compounds were dissolved in DMSO and the final solvent concentrations never exceeded 0.5% (v/v). The control wells included treated cells with 0.5% (v/v) DMSO and the positive control. 10 µM verapamil was included as a control for the HT-29 cell line. Measurements were performed in triplicate, and each experiment was repeated three times.

[2] = target: T1, microtubular protein isolated from calf brain (Bos taurus, UniProt P81947+Q6B856); test: Inhibition of tubulin polymerisation (turbidity); type: biochemical; conditions: for TPI % 10 µM: 10 µM compound, 1.5 mg/mL microtubular protein; for IC50: in vitro tubulin polymerisation inhibition, read-out: TPI IC50
T1 construct: isolated from calf brain according to the modified Shelanski method; from tissue; host or cells: calf brain
Procedure: Microtubular protein was isolated from calf brain according to the modified Shelanski method[23]^,[24] by two cycles of temperature-dependent assembly/disassembly and stored at −80 °C. Before each use, protein concentration is determined by Bradford method[25] taking BSA as standard. Tubulin polymerisation was monitored using a Helios α spectrophotometer by measuring the increase in turbidity at 450 nm, caused by a shift from 4 °C to 37 °C, which allows the in vitro microtubular protein to depolymerise and to polymerise, respectively. The assay was carried out in quartz cuvettes containing 1.5 mg/mL microtubular protein and the ligand (except for control cuvette with only DMSO at the same concentration) in a mixture of 0.1 M MES buffer, 1 mM EGTA, 1 mM MgCl2, 1 mM β-ME, and 1.5 mM GTP at pH 6.7 (final volume 500 µL). Cuvettes were preincubated at 20 °C for 30 min, to allow ligand binding to tubulin, and subsequently cooled on ice for 10 min. Then, the experiment starts at 4 °C to establish the initial baseline. The assembly process was initiated by a temperature shift to 37 °C and the turbidity produced by tubulin polymerisation can be measured by an absorbance increase. After reaching a stable plateau, the temperature was switched back to 4 °C to return to the initial absorption values (to confirm the reversible nature of the monitored process and to determine whether or not the microtubular protein has stabilized). The difference in amplitude between the stable plateau and the initial baseline of the curves was taken as the degree of tubulin polymerisation for each experiment. […] All compounds were tested at 10 µM concentration. IC50 values were calculated for compounds that inhibit tubulin polymerisation more than 50% at 10 µM. […] All the measurements were carried out in at least two independent experiments using microtubular protein from different preparations.

[3] = test system: HT-29 (human colon carcinoma) cells; test: Cell growth assay (XTT), HT-29, alone or with verapamil; type: cell-based
Procedure: as §1, with “Compounds showing antiproliferative effects at tested concentration were selected for IC50 calculation (50% inhibitory concentration compared to the untreated controls) from 10^−5 to 10^−10 M concentration.” left out

[4] = Aqueous solubility (saturation shake-flask, UV); type: physicochemical; conditions: pH 7.0 phosphate buffer, room temperature; for solubility at 48 h: aqueous buffer, thermodynamic from solid
Procedure: The aqueous solubility was determined in a Helios-α UV-320 Spectrophotometer Thermo-Spectronic, Thermo Fischer Scientific, Waltham, MA, USA) using an approach based on the saturation shake-flask method. 1–2 mg of each selected compound was suspended in 300 µL pH 7.0 buffer and stirred for 48 h at room temperature. The resulting mixture was filtered through a […] filter to discard the insoluble residues. A scan between 270 and 400 nm for the tested compound was performed and three wavelengths of maximum absorbance were selected. Calibration curves were performed at these wavelengths and the concentration in the supernatant was measured by UV absorbance. The final value was given as the average of the three measurements.

[5] = test system: MCF7 (human breast carcinoma) cells; test: Cell growth assay (XTT), MCF7; type: cell-based; conditions: for IC50: Homo sapiens, MCF7, 72 h drug exposure, XTT, read-out: Antiproliferative activity IC50 MCF7
Procedure: as §1

[6] = Homo sapiens, HT-29, 72 h drug exposure, XTT, read-out: Antiproliferative activity IC50 HT-29
[7] = 72 h, in the presence of Pgp/MDR1 inhibitor verapamil (10 µM), read-out: Antiproliferative activity IC50 HT-29 Verap

T1 sequence (Q6B856 whole entry): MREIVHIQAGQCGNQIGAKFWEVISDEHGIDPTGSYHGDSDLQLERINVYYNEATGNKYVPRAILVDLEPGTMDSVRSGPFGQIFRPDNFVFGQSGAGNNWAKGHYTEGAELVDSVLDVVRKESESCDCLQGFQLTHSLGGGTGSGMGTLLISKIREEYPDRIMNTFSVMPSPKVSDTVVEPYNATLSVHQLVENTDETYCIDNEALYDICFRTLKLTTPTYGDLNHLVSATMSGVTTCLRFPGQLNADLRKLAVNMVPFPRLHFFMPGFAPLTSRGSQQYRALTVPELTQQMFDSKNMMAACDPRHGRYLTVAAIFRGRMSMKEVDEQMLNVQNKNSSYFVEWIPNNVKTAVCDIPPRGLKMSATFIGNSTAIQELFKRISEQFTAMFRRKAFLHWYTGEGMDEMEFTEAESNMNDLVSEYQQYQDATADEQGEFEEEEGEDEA
T1 sequence (P81947 whole entry): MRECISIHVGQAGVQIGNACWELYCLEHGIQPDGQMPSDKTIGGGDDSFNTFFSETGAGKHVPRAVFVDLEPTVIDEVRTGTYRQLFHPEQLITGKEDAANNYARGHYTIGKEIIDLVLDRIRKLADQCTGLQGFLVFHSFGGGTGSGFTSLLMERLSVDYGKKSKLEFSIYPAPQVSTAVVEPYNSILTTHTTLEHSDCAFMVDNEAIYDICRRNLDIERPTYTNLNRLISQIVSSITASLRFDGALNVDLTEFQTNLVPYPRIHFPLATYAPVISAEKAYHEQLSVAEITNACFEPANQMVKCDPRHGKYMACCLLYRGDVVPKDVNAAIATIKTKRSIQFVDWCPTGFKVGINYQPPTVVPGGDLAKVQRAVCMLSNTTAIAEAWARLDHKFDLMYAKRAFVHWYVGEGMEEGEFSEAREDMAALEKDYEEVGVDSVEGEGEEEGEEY

Row | SMILES | melting point | IC50 [1] | TPI % 10 µM [2] | IC50 [2] | IC50 [3, 6] | solubility at 48 h [4] | IC50 [5] | IC50 [3, 7] | Fold more potent against MCF7 than against HeLa ([5]; ratio of IC50 values) | Difference of IC50 values HeLa vs HT-29 [3] | Aqueous solubility ([4]; 48 h)
1 | COc1ccc(/C=C\c2cc(OC)c(OC)c(OC)c2)cc1O [Combretastatin A-4, combretastatin A-4, reference compound] |  | 2 nM | 100% |  | 305 nM |  | 1 nM | 327 nM |  | > 100 fold | 1 µg/mL
2 | CCN(c1cc(OC)cc(OC)c1Br)S(=O)(=O)c1ccc(OC)cc1 [Compound 9b, N-(2-bromo-3,5-dimethoxyphenyl)-N-ethyl-4-methoxybenzenesulphonamide] | 141 to 144 °C | > 1000 nM | 0% | > 10000 nM | > 1000 nM |  | > 1000 nM |  |  |  | 
3 | COc1ccc(S(=O)(=O)N(C(=O)OCc2ccccc2)c2cc(OC)cc(OC)c2)cc1 [Compound 7, Benzyl (3,5-dimethoxyphenyl)((4-methoxyphenyl)sulphonyl)carbamate] | 129 to 131 °C | > 1000 nM | 0% | > 10000 nM | > 1000 nM |  | > 1000 nM |  |  |  | 
4 | COc1ccc(S(=O)(=O)N(Cc2ccccc2)c2cc(OC)cc(OC)c2)cc1 [Compound 6, N-benzyl-N-(3,5-dimethoxyphenyl)-4-methoxybenzenesulphonamide] | 146 to 150 °C | > 1000 nM | 0% | > 10000 nM | > 1000 nM |  | > 1000 nM |  |  |  | 
5 | CCN(c1cc(OC)cc(OC)c1)S(=O)(=O)c1ccc(OC)cc1 [Compound 3, N-(3,5-dimethoxyphenyl)-N-ethyl-4-methoxybenzenesulphonamide] | 109 to 118 °C | > 1000 nM | 0% | > 10000 nM | > 1000 nM |  | > 1000 nM |  |  |  | 
6 | COc1ccc(S(=O)(=O)Nc2cc(OC)cc(OC)c2)cc1 [Compound 1, N-(3,5-dimethoxyphenyl)-4-methoxybenzenesulphonamide] | 115 to 122 °C | > 1000 nM | 0% | > 10000 nM | > 1000 nM |  | > 1000 nM |  |  |  | 
7 | COc1ccc(S(=O)(=O)N(CC#N)c2cc(OC)cc(OC)c2)cc1 [Compound 4, N-(cyanomethyl)-N-(3,5-dimethoxyphenyl)-4-methoxybenzenesulphonamide] | 92 to 96 °C | > 1000 nM | 0% | > 10000 nM | > 1000 nM |  | > 1000 nM |  |  |  | 

Second part, led by results:

Row | melting point | IC50 [1] | TPI % 10 µM [2] | IC50 [2] | IC50 [3, 6] | solubility at 48 h [4] | IC50 [5] | IC50 [3, 7] | SMILES | Fold more potent against MCF7 than against HeLa ([5]; ratio of IC50 values) | Difference of IC50 values HeLa vs HT-29 [3] | Aqueous solubility ([4]; 48 h)
8 | 162 to 167 °C | 510 nM | 0% | > 10000 nM | 543 nM | 22 µg/mL (≈ 54.7 µM) |  |  | COc1ccc(S(=O)(=O)Nc2cc(OC)c(OC)cc2Br)cc1 [Compound 13, N-(2-bromo-4,5-dimethoxyphenyl)-4-methoxybenzenesulphonamide] |  |  | 
9 | 76 to 84 °C | 407 nM | 16% | > 10000 nM | 360 nM | 13 µg/mL (≈ 29.5 µM) | 575 nM | 750 nM | COc1ccc(S(=O)(=O)N(CC#N)c2cc(OC)c(OC)cc2Br)cc1 [Compound 16, N-(2-bromo-4,5-dimethoxyphenyl)-N-(cyanomethyl)-4-methoxybenzenesulphonamide] |  |  | 
10 | 111 to 117 °C | 313 nM | 24% | > 10000 nM | 365 nM | 26 µg/mL (≈ 60.4 µM) | 660 nM | 500 nM | CCN(c1cc(OC)c(OC)cc1Br)S(=O)(=O)c1ccc(OC)cc1 [Compound 15, N-(2-bromo-4,5-dimethoxyphenyl)-N-ethyl-4-methoxybenzenesulphonamide] |  |  | 
11 | 173 to 180 °C | 500 nM | 5% | > 10000 nM | 365 nM | 15 µg/mL (≈ 38.2 µM) | 67 nM | 415 nM | COc1ccc(S(=O)(=O)N(CC#N)c2cc(OC)c(OC)cc2OC)cc1 [Compound 35, N-(cyanomethyl)-4-methoxy-N-(2,4,5-trimethoxyphenyl)benzenesulphonamide] | 4–7 fold |  | 
12 |  | > 1000 nM | 0% | > 10000 nM | > 1000 nM | 70 µg/mL (≈ 207 µM) | > 1000 nM |  | COc1ccc(S(=O)(=O)N(C)c2ccc(OC)c(OC)c2)cc1 [Compound 12, N-(3,4-dimethoxyphenyl)-4-methoxy-N-methylbenzenesulphonamide] |  |  | 
13 | 136 to 141 °C | 557 nM | 0% | > 10000 nM | 907 nM | 61 µg/mL (≈ 147 µM) |  |  | COc1ccc(S(=O)(=O)N(C)c2cc(OC)c(OC)cc2Br)cc1 [Compound 14, N-(2-bromo-4,5-dimethoxyphenyl)-4-methoxy-N-methylbenzenesulphonamide] |  |  | 
14 |  | 313 nM | 19% | > 10000 nM | 500 nM | 122 µg/mL (≈ 320 µM) | 715 nM | 1070 nM | CCN(c1cc(OC)c(OC)cc1OC)S(=O)(=O)c1ccc(OC)cc1 [Compound 34, N-ethyl-4-methoxy-N-(2,4,5-trimethoxyphenyl)benzenesulphonamide] |  |  | 
